Results as given in ChEMBL document CHEMBL1158059, “Oculatol, oculatolide, and A-nor sterols from the sponge Haliclona oculata” (J Nat Prod, 2006).
In brackets after ≈: the same amount, converted by molar mass.

Assays:
[1] = biological target: T1, Prostaglandin G/H synthase 2 (Homo sapiens, UniProt P35354); test: Inhibition of COX2
T1 sequence (P35354 whole entry): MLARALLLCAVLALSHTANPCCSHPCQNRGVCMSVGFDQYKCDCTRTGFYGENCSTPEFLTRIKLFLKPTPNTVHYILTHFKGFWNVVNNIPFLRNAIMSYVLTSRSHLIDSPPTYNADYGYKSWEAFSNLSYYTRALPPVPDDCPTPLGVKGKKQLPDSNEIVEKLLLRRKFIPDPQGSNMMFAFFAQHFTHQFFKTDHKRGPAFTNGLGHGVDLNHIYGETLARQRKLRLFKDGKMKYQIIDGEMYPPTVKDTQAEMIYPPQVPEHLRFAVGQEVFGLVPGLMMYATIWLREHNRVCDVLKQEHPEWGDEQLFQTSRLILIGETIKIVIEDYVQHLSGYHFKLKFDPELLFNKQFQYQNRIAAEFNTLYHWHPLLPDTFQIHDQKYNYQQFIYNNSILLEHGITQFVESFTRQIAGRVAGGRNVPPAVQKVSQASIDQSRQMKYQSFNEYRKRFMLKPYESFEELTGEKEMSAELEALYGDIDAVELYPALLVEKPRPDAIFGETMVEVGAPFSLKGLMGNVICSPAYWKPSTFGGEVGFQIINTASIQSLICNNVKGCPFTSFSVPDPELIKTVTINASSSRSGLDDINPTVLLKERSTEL

Acetylcholinesterase = Acetylcholinesterase (Homo sapiens, UniProt P22303); test: Inhibition of AChE
Acetylcholinesterase, sequence (P22303 whole entry): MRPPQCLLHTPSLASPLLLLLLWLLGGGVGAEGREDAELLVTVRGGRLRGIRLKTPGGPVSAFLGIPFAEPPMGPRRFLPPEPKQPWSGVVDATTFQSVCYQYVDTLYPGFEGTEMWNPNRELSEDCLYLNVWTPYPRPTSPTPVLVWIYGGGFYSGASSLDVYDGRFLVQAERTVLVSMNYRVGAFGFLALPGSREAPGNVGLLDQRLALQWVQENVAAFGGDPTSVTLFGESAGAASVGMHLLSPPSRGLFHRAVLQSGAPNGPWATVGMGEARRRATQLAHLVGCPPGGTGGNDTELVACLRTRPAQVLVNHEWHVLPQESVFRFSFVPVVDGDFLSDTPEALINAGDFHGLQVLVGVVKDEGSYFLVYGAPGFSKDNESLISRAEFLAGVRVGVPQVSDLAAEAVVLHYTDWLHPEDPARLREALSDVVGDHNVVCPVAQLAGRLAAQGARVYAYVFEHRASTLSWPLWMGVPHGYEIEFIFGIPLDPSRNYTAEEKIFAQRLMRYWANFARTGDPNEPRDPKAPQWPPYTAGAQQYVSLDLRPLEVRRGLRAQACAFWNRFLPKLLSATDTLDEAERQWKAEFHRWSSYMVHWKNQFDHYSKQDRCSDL

HL-60 = test: Cytotoxicity against human HL-60 cells; assay type: functional, cell-based
A549 = test: Cytotoxicity against human A549 cells; assay type: functional, cell-based
Bel-7402 = test: Cytotoxicity against human Bel-7402 cells; assay type: functional, cell-based
[2] = biological target: T2, Tyrosine-protein phosphatase non-receptor type 1 (Homo sapiens, UniProt P18031); test: Inhibition of PTP1B
T2 sequence (P18031 whole entry): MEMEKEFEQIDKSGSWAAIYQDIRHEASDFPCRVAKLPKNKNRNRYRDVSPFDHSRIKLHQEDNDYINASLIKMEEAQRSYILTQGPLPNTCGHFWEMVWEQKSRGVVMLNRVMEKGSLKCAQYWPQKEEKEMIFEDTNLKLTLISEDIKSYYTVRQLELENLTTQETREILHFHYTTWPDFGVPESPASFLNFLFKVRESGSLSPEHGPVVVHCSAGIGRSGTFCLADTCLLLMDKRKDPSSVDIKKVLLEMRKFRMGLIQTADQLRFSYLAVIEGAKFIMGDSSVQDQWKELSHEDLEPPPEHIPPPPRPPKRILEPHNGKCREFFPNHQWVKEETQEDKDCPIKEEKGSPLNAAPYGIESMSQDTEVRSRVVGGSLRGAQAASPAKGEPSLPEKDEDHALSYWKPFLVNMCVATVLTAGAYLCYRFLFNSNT

HeLa = test: Cytotoxicity against human HeLa cells; assay type: functional, cell-based

`C=C(CC[C@@H](C)[C@H]1CC[C@H]2[C@@H]3CC=C4C(=O)[C@](O)(C(=O)OCC)C[C@]4(C)[C@H]3CC[C@]12C)C(C)C` showed an IC50 [1] of over 21.2 µM, an IC50 (Acetylcholinesterase) of over 21.2 µM and an IC50 (HL-60) of 0.32 µg/mL (≈ 0.68 µM). For the same compound, the IC50 (A549) was 0.47 µg/mL (≈ 0.999 µM), the IC50 (Bel-7402) was 0.73 µg/mL (≈ 1.55 µM) and the IC50 [2] was over 21.2 µM. It also gave an IC50 (HeLa) of over 10 µg/mL.
